Drawing on US20240317706A1, “COMPOUNDS THAT MEDIATE PROTEIN DEGRADATION AND METHODS OF USE THEREOF” (Monte Rosa Therapeutics, Inc., priority 2021, published 2024), this text covers Dmax for 22 compounds.

Some results are limits rather than exact numbers.

The assay has as its target T1, CDK2 (Homo sapiens, UniProt P24941).
T1 construct: HEK293 clonal lines with CRISPR KI HiBiT tag on CDK2 proteins; host or cells: HEK293 clonal line, CRISPR knock-in HiBiT-CDK2, stably expressing LgBiT
Nature of the assay: NanoBiT assay (CDK2 degradation). The note with it: HEK293, HEK293 clonal line with CRISPR KI HiBiT tag on CDK2, Endurazine live cell substrate, 24 hours. In kind it is cell-based. As to the method:
HEK293 clonal lines with CRISPR KI HiBiT tag on either CDK2 proteins and stably expressing LgBiT protein were obtained from Promega (Madison, WI). Cells were plated at 5000 cells per well using Multiflo (BioTek) in 384-well white solid bottom plates (Corning, 3570BC) in 25 ul volume in DMEM media (DMEM, high glucose, HEPES, no phenol red (ThermoFisher Scientific, 21063029)) containing 10% FBS (Corning, 35-075-CV), 1% Penicillin/Streptomycin ((ThermoFisher Scientific, 15140-122), and 1% Endurazine (Nano-Glo Endurazine Live Cell Substrate (Promega, N2571)). Cells were incubated for 16 hours at 37 C, 5% CO2. 75 nL of a compound at 30 μM were dosed into the plate using an Echo® 650 liquid handler (Labcyte). Cells were incubated at 37° C., 5% CO2 for 24 hours and then signal was read on a Pherastar FSX using “LUM plus” optic module.
Analysis was performed in Scinamic (Scinamic, Cambridge, MA). Luminescence response (R) was calculated by the formula: response=100*(S−N)/(P−N) where S is the signal of the well, N and P the mean negative and positive control values respectively of the same plate. The luminescence response was then fitted in Scinamic using a 3-parameter agonist logistic fit (hillslope=1, EC50>0, top/bottom unconstrained).
Background: The HiBiT peptide binds its large partner to form an active luciferase.
Turning to `CN(C(=O)OC(C)(C)C)C1CC(COC(=O)NCc2ccc3c(c2)C(=O)N(C2CCC(=O)NC2=O)C3)C1` (stereo not shown) [Compound 96, (3-{[(tert-butoxy)carbonyl](methyl)amino}cyclobutyl)methyl N-{[2-(2,6-dioxopiperidin-3-yl)-3-oxo-2,3-dihydro-1H-isoindol-5-yl]methyl}carbamate], the greatest degradation seen (Dmax) was 10 to 50%.
Next, `O=C1CCC(N2Cc3ccc(CNC(=O)OCC4CSC4)cc3C2=O)C(=O)N1` (stereo not shown) [Compound 60, (thietan-3-yl)methyl N-{[2-(2,6-dioxopiperidin-3-yl)-3-oxo-2,3-dihydro-1H-isoindol-5-yl]methyl}carbamate]: 10 to 50%; `O=C1CCC(N2Cc3ccc(CNC(=O)OC[C@@H]4C[C@H]4F)cc3C2=O)C(=O)N1` (mixture of isomers) [Compound 75, rac-[(1R,2S)-2-fluorocyclopropyl]methyl N-{[2-(2,6-dioxopiperidin-3-yl)-3-oxo-2,3-dihydro-1H-isoindol-5-yl]methyl}carbamate]: no more than 10%.
Next, `CC1(COC(=O)NCc2ccc3c(c2)C(=O)N(C2CCC(=O)NC2=O)C3)CCCCC1` (stereo not shown) [Compound 85, (1-methylcyclohexyl)methyl N-{[2-(2,6-dioxopiperidin-3-yl)-3-oxo-2,3-dihydro-1H-isoindol-5-yl]methyl}carbamate]: 10 to 50%; `O=C1CCC(N2Cc3ccc(CNC(=O)OCC4CCCS4(=O)=O)cc3C2=O)C(=O)N1` (stereo not shown) [Compound 82, (1,1-dioxo-1lambda6-thiolan-2-yl)methyl N-{[2-(2,6-dioxopiperidin-3-yl)-3-oxo-2,3-dihydro-1H-isoindol-5-yl]methyl}carbamate]: no more than 10%; `CC(C)O[C@H]1C[C@@H](OC(=O)NCc2ccc3c(c2)C(=O)N(C2CCC(=O)NC2=O)C3)C1` (stereo partly shown) [Compound 55, (1s,3s)-3-(propan-2-yloxy)cyclobutyl N-{[2-(2,6-dioxopiperidin-3-yl)-3-oxo-2,3-dihydro-1H-isoindol-5-yl]methyl}carbamate]: 10 to 50%.
As to `C[C@@H](OC(=O)NCc1ccc2c(c1)C(=O)N(C1CCC(=O)NC1=O)C2)C1CC12CC2` (stereo partly drawn) [Compound 71, (1R)-1-{spiro[2.2]pentan-1-yl}ethyl N-{[2-(2,6-dioxopiperidin-3-yl)-3-oxo-2,3-dihydro-1H-isoindol-5-yl]methyl}carbamate], the maximal degradation (Dmax) was no more than 10%.
The compound `CC1(C)C2CCC1(COC(=O)NCc1ccc3c(c1)C(=O)N(C1CCC(=O)NC1=O)C3)CC2` (stereo not shown) [Compound 63, {7,7-dimethylbicyclo[2.2.1]heptan-1-yl}methyl N-{[2-(2,6-dioxopiperidin-3-yl)-3-oxo-2,3-dihydro-1H-isoindol-5-yl]methyl}carbamate] showed a Dmax of 10 to 50%.
Next, `CC(=O)N1CCC(COC(=O)NCc2ccc3c(c2)C(=O)N(C2CCC(=O)NC2=O)C3)C1` (stereo not shown) [Compound 50, (1-acetylpyrrolidin-3-yl)methyl N-{[2-(2,6-dioxopiperidin-3-yl)-3-oxo-2,3-dihydro-1H-isoindol-5-yl]methyl}carbamate]: no more than 10%; `C[C@@H]1CCOC1COC(=O)NCc1ccc2c(c1)C(=O)N(C1CCC(=O)NC1=O)C2` (mixture of isomers) [Compound 76, rac-[(2R,3S)-3-methyloxolan-2-yl]methyl N-{[2-(2,6-dioxopiperidin-3-yl)-3-oxo-2,3-dihydro-1H-isoindol-5-yl]methyl}carbamate]: no more than 10%.
In the case of `CC1(C)[C@@H]2C[C@@H](OC(=O)NCc3ccc4c(c3)C(=O)N(C3CCC(=O)NC3=O)C4)C[C@@H]21` (stereo partly drawn) [Compound 62, (1R,3s,5S)-6,6-dimethylbicyclo[3.1.0]hexan-3-yl N-{[2-(2,6-dioxopiperidin-3-yl)-3-oxo-2,3-dihydro-1H-isoindol-5-yl]methyl}carbamate], the greatest degradation seen (Dmax) was in the range of 50 to 80%.
Next, `CC1(C)OC[C@@H](COC(=O)NCc2ccc3c(c2)C(=O)N(C2CCC(=O)NC2=O)C3)O1` (stereo partly drawn) [Compound 87, [(4S)-2,2-dimethyl-1,3-dioxolan-4-yl]methyl N-{[2-(2,6-dioxopiperidin-3-yl)-3-oxo-2,3-dihydro-1H-isoindol-5-yl]methyl}carbamate]: no more than 10%; `CC1(COC(=O)NCc2ccc3c(c2)C(=O)N(C2CCC(=O)NC2=O)C3)CN(C2CC2)C1` (stereo not shown) [Compound 97, (1-cyclopropyl-3-methylazetidin-3-yl)methyl N-{[2-(2,6-dioxopiperidin-3-yl)-3-oxo-2,3-dihydro-1H-isoindol-5-yl]methyl}carbamate]: no more than 10%.
For `O=C1CCC(N2Cc3ccc(CNC(=O)OCC4CCCCS4)cc3C2=O)C(=O)N1` (stereo not shown) [Compound 53, (thian-2-yl)methyl N-{[2-(2,6-dioxopiperidin-3-yl)-3-oxo-2,3-dihydro-1H-isoindol-5-yl]methyl}carbamate], the Dmax was 10 to 50%.
The compound `O=C1CCC(N2Cc3ccc(CNC(=O)OCCC4CC4(F)F)cc3C2=O)C(=O)N1` (stereo not shown) [Compound 78, 2-(2,2-difluorocyclopropyl)ethyl N-{[2-(2,6-dioxopiperidin-3-yl)-3-oxo-2,3-dihydro-1H-isoindol-5-yl]methyl}carbamate] yielded a Dmax of no more than 10%.
Next, `CCC1(COC(=O)NCc2ccc3c(c2)C(=O)N(C2CCC(=O)NC2=O)C3)COC1` (stereo not shown) [Compound 42, (3-ethyloxetan-3-yl)methyl N-{[2-(2,6-dioxopiperidin-3-yl)-3-oxo-2,3-dihydro-1H-isoindol-5-yl]methyl}carbamate]: 10 to 50%; `COCC1(COC(=O)NCc2ccc3c(c2)C(=O)N(C2CCC(=O)NC2=O)C3)CCCC1` (stereo not shown) [Compound 57, [1-(methoxymethyl)cyclopentyl]methyl N-{[2-(2,6-dioxopiperidin-3-yl)-3-oxo-2,3-dihydro-1H-isoindol-5-yl]methyl}carbamate]: no more than 10%; `CC1CN(CCOC(=O)NCc2ccc3c(c2)C(=O)N(C2CCC(=O)NC2=O)C3)C1` (stereo not shown) [Compound 98, 2-(3-methylazetidin-1-yl)ethyl N-{[2-(2,6-dioxopiperidin-3-yl)-3-oxo-2,3-dihydro-1H-isoindol-5-yl]methyl}carbamate]: 10 to 50%.
Next, `O=C1CCC(N2Cc3ccc(CNC(=O)O[C@H]4C[C@@H]5C[C@H]4CC5(F)F)cc3C2=O)C(=O)N1` (mixture of isomers) [Compound 92, rac-(1R,2R,4R)-5,5-difluorobicyclo[2.2.1]heptan-2-yl N-{[2-(2,6-dioxopiperidin-3-yl)-3-oxo-2,3-dihydro-1H-isoindol-5-yl]methyl}carbamate]: no more than 10%.
Next, `O=C1CCC(N2Cc3ccc(CNC(=O)OCC#CC4CC4)cc3C2=O)C(=O)N1` (stereo not shown) [Compound 44, 3-cyclopropylprop-2-yn-1-yl N-{[2-(2,6-dioxopiperidin-3-yl)-3-oxo-2,3-dihydro-1H-isoindol-5-yl]methyl}carbamate]: 10 to 50%; `O=C1CCC(N2Cc3ccc(CNC(=O)OC[C@H]4[C@@H]5COC[C@@H]54)cc3C2=O)C(=O)N1` (stereo partly drawn) [Compound 61, [(1R,5S,6R)-3-oxabicyclo[3.1.0]hexan-6-yl]methyl N-{[2-(2,6-dioxopiperidin-3-yl)-3-oxo-2,3-dihydro-1H-isoindol-5-yl]methyl}carbamate]: no more than 10%; `C[C@@H]1CC[C@H](COC(=O)NCc2ccc3c(c2)C(=O)N(C2CCC(=O)NC2=O)C3)O1` (mixture of isomers) [Compound 68, rac-[(2R,5R)-5-methyloxolan-2-yl]methyl N-{[2-(2,6-dioxopiperidin-3-yl)-3-oxo-2,3-dihydro-1H-isoindol-5-yl]methyl}carbamate]: 10 to 50%.

What is called Dmax is the largest share of the target that was removed. High values mean deep degradation, low ones shallow degradation.
